Experimental data from US20230212571A1, “COMPOSITIONS AND METHODS FOR DELIVERING POLYNUCLEOTIDES” (NeOnc Technologies, Inc., priority 2020, published 2023).

Columns and labels:
AVM-BEC [1] = assay: Human Notch Signaling Pathway PCR array in AVM-BEC; assay type: cell-based
Protocol: MiR-18a (hsa-miR-18a-5p, 40 nM, Dharmacon) or a scramble microRNA (40 nM, Dharmacon) in nuclease-free water was added with argonaute 2 (Ago-2, 0.4 nM, Abcam) as the microRNA carrier and stabilizer^9. (Ferreira R, Santos T, Amar A, et al. Argonaute-2 promotes miR-18a entry in human brain endothelial cells. J Am Heart Assoc. 2014; 3(3):e000968). No transfection reagent was used with miR-18a or scramble microRNA treatments. Recombinant human TSP-1 (R&D Systems) stock solution was prepared in PBS and further diluted in culture medium to be used at a final concentration of 1000 ng/mL. Cells were treated during 24 h for mRNA and 48 h for protein expression studies. NEO100 (NeOnc Technologies) stock was prepared in DMSO and used immediately or stored at −20° C.
The extraction and analysis of total mRNA and microRNAs were described^9,13. (Ferreira R, Santos T, Amar A, et al. Argonaute-2 promotes miR-18a entry in human brain endothelial cells. J Am Heart Assoc. 2014; 3(3):e000968) (Marín-Ramos N I, Jhaveri N, Thein T Z, Fayngor R A, Chen T C, Hofman F M. NEO212, a conjugate of temozolomide and perillyl alcohol, blocks the endothelial-to-mesenchymal transition in tumor-associated brain endothelial cells in glioblastoma. Cancer Lett. 2018; 442:170-180). The Human Notch Signaling Pathway RT^2 Profiler PCR Array (Qiagen) was used to analyze the expression of 84 genes related to Notch signaling. For mRNA studies, […] (B2M) was measured for sample normalization. The primer sequences were included in Table 2. For microRNA analysis, RNU44 and U6 snRNA TaqMan microRNA Control Assays were used for normalization of human and mice samples, respectively.

AVM-BEC [2] = assay: Biotinylated miR-18a uptake analysis in AVM-BEC; assay type: cell-based, human; settings: biotinylated probes, 30 min at 37° C., no transfection reagent, Ago-2 0.4 nM when indicated
Protocol: Biotinylated hsa-miR-18a-5p sense and hsa-miR-18a-3p sense probes were acquired from Integrated DNA Technologies (IDT) and reconstituted in RNAse-free water. A scramble sequence of the miR-18a was designed using GenScript®, and the biotinylated probe using this sequence was also acquired from IDT and reconstituted in RNAse-free water. […] Then, media was replaced by fresh media containing the corresponding probes without Lipofectamine, and AVM-BEC were incubated for 30 min at 37° C. in shear flow conditions. When indicated, Ago-2 (0.4 nM, Abcam) was co-administered with the probes as the microRNA carrier and stabilizer^1. Cells were then washed with PBS and fixed with 4% paraformaldehyde (PFA). Avidin/Biotin blocking kit (Vector Laboratories) was used to block unspecific bindings, and cells were incubated with Alexa Fluor 488 streptavidin (1:200, Thermo Fisher Scientific) for 1 h at room temperature to detect the tagged microRNAs. DAPI (Thermo Fisher Scientific) was used to detect cell nuclei. Cells were mounted with Dako Fluorescence Mounting Medium. Pictures were taken in a Zeiss LSM 510 confocal microscope (Carl Zeiss Inc.).

[3] = tested on: Mgp^−/− mouse model of AVM; assay: In vivo computed tomography angiography (CTA) of brain vasculature
Protocol: In vivo ultra-high-resolution computed tomography angiography (CTA) was performed to study changes in neurovascular architecture like methods described previously. (Mukundan S, Jr., […], Badea C T, et al. A liposomal nanoscale contrast agent for preclinical CT in mice. AJR Am J Roentgenol. 2006; 186(2):300-307) ([…], Rendon D, et al. Ultra-High-Resolution In vivo Computed Tomography Imaging of Mouse Cerebrovasculature Using a Long Circulating Blood Pool Contrast Agent. Scientific reports. 2015; 5:10178). Briefly, mice were anesthetized using 3-4% isoflurane, positioned on a CT cradle and maintained at 1-1.5% isoflurane delivered via nose cone. Mice were intravenously injected a long circulating liposomal-iodine blood pool contrast agent (2.2 g/kg body weight) for CTA^8,9 and scanned on a small animal micro-CT scanner Rigaku CT Lab GX90-1-E. The following scan parameters were used: High Resolution Scan Mode, 70 kVp, 114 uA, 10 mm FOV, 1440 projections, 20 μm voxel size, 14 min scan time. All animal protocols were approved by the USC's Institutional Animal Care and Use Committee (IACUC) and strictly adhered to. MiR-18a was co-administered with Ago-2 (0.0008 nmol/mouse) to increase stability and cellular uptake^9 (Ferreira R, Santos T, Amar A, et al. Argonaute-2 promotes miR-18a entry in human brain endothelial cells. J Am Heart Assoc. 2014; 3(3):e000968). (FIG. 9). Details about randomization, blinding, group size and inclusion/exclusion criteria have been included in Methods. […] The vascular data was quantified using ImageJ. […] The pixels were analyzed as particles and normalized to results from the wildtype mice (WT, Mgp^+/+).

hsa-miR-18a-5p (UAGGUGCAUCUAGUGCAGAUAG; chemistry not given here; listed as Homo sapiens) [small non-coding RNA molecule involved in post-transcriptional regulation of gene expression; Dharmacon]
ADAM10 mRNA expression (AVM-BEC [1]; FIG. 13): downregulated | Notch-related genes downregulated (AVM-BEC [1]; among the affected genes): 50 genes | Notch-related genes affected (fold change>2) (AVM-BEC [1]; of 84 Notch-related genes): 68 genes | uptake: levels of miR-18a detected inside the AVM-BEC and their nuclei (AVM-BEC [2]): enough to obtain AVM-BEC uptake | AzACA vessel density compared to healthy wildtype mice ([3]; 0.08 nmol/mouse IN daily for 2-weeks with Ago-2): 92-94% | brain vasculature and leakage (CTA) ([3]; Mgp^−/− mice, IN 2-weeks): normalized | calcifications found in carotids ([3]; Mgp^−/− mice, IN 2-weeks): no effect
